Molecules are shown by their SMILES. Structures can show the parent of a compound that is named as a salt.

T1 sequence (Q06187 whole entry): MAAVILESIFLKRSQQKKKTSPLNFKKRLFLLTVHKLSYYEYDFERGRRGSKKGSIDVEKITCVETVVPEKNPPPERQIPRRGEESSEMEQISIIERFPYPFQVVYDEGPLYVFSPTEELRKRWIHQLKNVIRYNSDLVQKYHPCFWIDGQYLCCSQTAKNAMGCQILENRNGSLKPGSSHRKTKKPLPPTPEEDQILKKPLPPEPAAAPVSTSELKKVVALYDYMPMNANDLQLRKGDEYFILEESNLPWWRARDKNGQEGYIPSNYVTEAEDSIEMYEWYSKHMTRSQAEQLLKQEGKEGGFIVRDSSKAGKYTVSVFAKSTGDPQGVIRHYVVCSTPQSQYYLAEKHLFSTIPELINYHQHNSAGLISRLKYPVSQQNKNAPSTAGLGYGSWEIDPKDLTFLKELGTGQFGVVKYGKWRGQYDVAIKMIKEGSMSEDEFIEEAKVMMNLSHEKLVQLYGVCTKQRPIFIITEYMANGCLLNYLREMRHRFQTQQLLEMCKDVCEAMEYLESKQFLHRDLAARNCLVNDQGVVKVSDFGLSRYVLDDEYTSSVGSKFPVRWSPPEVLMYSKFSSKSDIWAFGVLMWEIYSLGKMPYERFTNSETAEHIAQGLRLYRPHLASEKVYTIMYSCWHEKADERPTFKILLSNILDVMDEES

The first test addresses T1, BTK (Homo sapiens, UniProt Q06187).
T1 construct: endogenous in cells; host or cells: TMD-8 cells
In words: BTK degradation in TMD-8 cells, HTRF assay after 6 h treatment. The following applies: IC50 (DC50) of BTK degradation. It is filed as cell-based. An outline of the steps: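 Remaining BTK was quantified by HTRF in lysates of TMD-8 cells after 6 h exposure to an 8-point, 6-fold compound series (500× stocks in DMSO starting at 1 mM; 0.2% DMSO). Lysis 30 min, antibodies overnight at room temperature, ratio read at 665/620 nm; DC50 fitted with a four-parameter logistic equation.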
(In TR-FRET formats the signal depends on donor and acceptor labels being close together.)
Regarding `Cc1nc(CCN2CCN(c3ccc(-c4cnc5[nH]nc(-c6ccc([C@@H](C)NC(=O)c7nc(C(C)(C)C)no7)c(CO)c6)c5c4)cc3)CC2)ccc1C1CCC(=O)NC1=O` (stereo partly drawn) [Example 177, 3-(tert-butyl)-N-((1R)-1-(4-(5-(4-(4-(2-(5-(2,6-dioxopiperidin-3-yl)-6-methylpyridin-2-yl)ethyl)piperazin-1-yl)phenyl)-1H-pyrazolo[3,4-b]pyridin-3-yl)-2-(hydroxymethyl)phenyl)ethyl)-1,2,4-oxadiazole-5-carboxamide], the DC50 (in general, the concentration at which degradation of the target reaches its halfway point) came to 3.47 nM. Same read-out and setting: to `C[C@@H](NC(=O)c1noc(C(C)(C)C)n1)c1ccc(-c2n[nH]c3ncc(-c4ccc(N5CCN(CC6CCN(c7ccc(N8CCC(=O)NC8=O)cc7)CC6)CC5)nc4)cc23)cc1CO` [Example 178, (R)-5-(tert-butyl)-N-(1-(4-(5-(6-(4-((1-(4-(2,4-dioxotetrahydropyrimidin-1(2H)-yl)phenyl)piperidin-4-yl)methyl)piperazin-1-yl)pyridin-3-yl)-1H-pyrazolo[3,4-b]pyridin-3-yl)-2-(hydroxymethyl)phenyl)ethyl)-1,2,4-oxadiazole-3-carboxamide] belongs 6.81 nM; to `Cc1cc(N2CCC(CN3CCN(c4ccc(-c5cnc6[nH]nc(-c7ccc([C@@H](C)NC(=O)c8noc(C(C)(C)C)n8)c(CO)c7)c6c5)cn4)CC3)CC2)ccc1N1CCC(=O)NC1=O` [Example 179, (R)-5-(tert-butyl)-N-(1-(4-(5-(6-(4-((1-(4-(2,4-dioxotetrahydropyrimidin-1(2H)-yl)-3-methylphenyl)piperidin-4-yl)methyl)piperazin-1-yl)pyridin-3-yl)-1H-pyrazolo[3,4-b]pyridin-3-yl)-2-(hydroxymethyl)phenyl)ethyl)-1,2,4-oxadiazole-3-carboxamide], 6.28 nM. Turning to `Cc1cc(-c2n[nH]c3ncc(-c4ccc(N5CCN(C6CCN(c7ccc(NC8CCC(=O)NC8=O)cc7)CC6)CC5)cc4)cc23)ccc1[C@@H](C)NC(=O)c1noc(C(C)(C)C)n1` (stereo partly drawn) [Example 180, 5-(tert-butyl)-N-((1R)-1-(4-(5-(4-(4-(1-(4-((2,6-dioxopiperidin-3-yl)amino)phenyl)piperidin-4-yl)piperazin-1-yl)phenyl)-1H-pyrazolo[3,4-b]pyridin-3-yl)-2-methylphenyl)ethyl)-1,2,4-oxadiazole-3-carboxamide], the DC50 stood at 4.81 nM. For `Cc1cc(-c2n[nH]c3ncc(-c4ccc(N5CCN(CCc6ccc([C@H]7CCC(=O)NC7=O)c(F)c6)CC5)cn4)cc23)ccc1[C@@H](C)NC(=O)c1noc(C(C)(C)C)n1` [Example 181, 5-(tert-butyl)-N—((R)-1-(4-(5-(5-(4-(4-((R)-2,6-dioxopiperidin-3-yl)-3-fluorophenethyl)piperazin-1-yl)pyridin-2-yl)-1H-pyrazolo[3,4-b]pyridin-3-yl)-2-methylphenyl)ethyl)-1,2,4-oxadiazole-3-carboxamide], half-maximal degradation (DC50) was put at 1.24 nM. This DC50 is about 3.9-fold lower than that of the compound before. In turn, `Cc1cc(-c2n[nH]c3ncc(-c4ccc(N5CCN(CCc6ccc([C@@H]7CCC(=O)NC7=O)c(F)c6)CC5)cn4)cc23)ccc1[C@@H](C)NC(=O)c1noc(C(C)(C)C)n1` [Example 182, 5-(tert-butyl)-N—((R)-1-(4-(5-(5-(4-(4-((S)-2,6-dioxopiperidin-3-yl)-3-fluorophenethyl)piperazin-1-yl)pyridin-2-yl)-1H-pyrazolo[3,4-b]pyridin-3-yl)-2-methylphenyl)ethyl)-1,2,4-oxadiazole-3-carboxamide] displayed a DC50 of 11.8 nM.

On to `Cc1cc(-c2n[nH]c3ncc(-c4ccc(N5CCC(COc6ccc(C7CCC(=O)NC7=O)cc6)CC5)cc4)cc23)ccc1[C@@H](C)NC(=O)c1noc(C(C)(C)C)n1` (stereo partly drawn) [Example 183, 5-(tert-butyl)-N-((1R)-1-(4-(5-(4-(4-((4-(2,6-dioxopiperidin-3-yl)phenoxy)methyl)piperidin-1-yl)phenyl)-1H-pyrazolo[3,4-b]pyridin-3-yl)-2-methylphenyl)ethyl)-1,2,4-oxadiazole-3-carboxamide], for which the DC50 is 19.8 nM. On to `Cc1cc(-c2n[nH]c3ncc(-c4ccc(N5CCN(CC6CCN(c7ccc(N8CCC(=O)NC8=O)cc7)CC6)CC5)cc4)cc23)ccc1[C@@H](C)NC(=O)c1noc(C2(CO)CC2)n1` [Example 184, (R)—N-(1-(4-(5-(4-(4-((1-(4-(2,4-dioxotetrahydropyrimidin-1(2H)-yl)phenyl)piperidin-4-yl)methyl)piperazin-1-yl)phenyl)-1H-pyrazolo[3,4-b]pyridin-3-yl)-2-methylphenyl)ethyl)-5-(1-(hydroxymethyl)cyclopropyl)-1,2,4-oxadiazole-3-carboxamide], for which it took 14 nM to reach half-maximal degradation (DC50). Consider `Cc1cc(-c2n[nH]c3ncc(-c4ccc(N5CCN(CC6CCN(c7ccc(N8CCC(=O)NC8=O)c(C)c7)CC6)CC5)cc4)cc23)ccc1[C@@H](C)NC(=O)c1noc(C2(CO)CC2)n1` [Example 185, (R)—N-(1-(4-(5-(4-(4-((1-(4-(2,4-dioxotetrahydropyrimidin-1(2H)-yl)-3-methylphenyl)piperidin-4-yl)methyl)piperazin-1-yl)phenyl)-1H-pyrazolo[3,4-b]pyridin-3-yl)-2-methylphenyl)ethyl)-5-(1-(hydroxymethyl)cyclopropyl)-1,2,4-oxadiazole-3-carboxamide], for which the DC50 worked out at 16.2 nM. Turning to `Cc1cc(-c2n[nH]c3ncc(-c4ccc(N5CCN(CCn6cc(C7CCC(=O)NC7=O)cn6)CC5)cc4)cc23)ccc1[C@@H](C)NC(=O)c1noc(C(C)(C)C)n1` (stereo partly drawn) [Example 186, 5-(tert-butyl)-N-((1R)-1-(4-(5-(4-(4-(2-(4-(2,6-dioxopiperidin-3-yl)-1H-pyrazol-1-yl)ethyl)piperazin-1-yl)phenyl)-1H-pyrazolo[3,4-b]pyridin-3-yl)-2-methylphenyl)ethyl)-1,2,4-oxadiazole-3-carboxamide], the half-maximal degradation concentration (DC50) is 1.61 nM. This DC50 lies about 10-fold lower than the previous one. On the same count and under the same terms, to `Cc1cc(-c2n[nH]c3ncc(-c4ccc(N5CCC(COc6ccc(N7CCC(=O)NC7=O)cc6)CC5)cc4)cc23)ccc1[C@@H](C)NC(=O)c1noc(C(C)(C)C)n1` [Example 187, (R)-5-(tert-butyl)-N-(1-(4-(5-(4-(4-((4-(2,4-dioxotetrahydropyrimidin-1(2H)-yl)phenoxy)methyl)piperidin-1-yl)phenyl)-1H-pyrazolo[3,4-b]pyridin-3-yl)-2-methylphenyl)ethyl)-1,2,4-oxadiazole-3-carboxamide] belongs 9.56 nM; to `Cc1cc(-c2n[nH]c3ncc(-c4ccc(N5CCN(CC(F)(F)c6ccc(C7CCC(=O)NC7=O)cc6)CC5)cc4)cc23)ccc1[C@@H](C)NC(=O)c1nc(C(C)(C)C)no1` (stereo partly drawn) [Example 188, 3-(tert-butyl)-N-((1R)-1-(4-(5-(4-(4-(2-(4-(2,6-dioxopiperidin-3-yl)phenyl)-2,2-difluoroethyl)piperazin-1-yl)phenyl)-1H-pyrazolo[3,4-b]pyridin-3-yl)-2-methylphenyl)ethyl)-1,2,4-oxadiazole-5-carboxamide], 9.91 nM; to `Cc1cc(-c2n[nH]c3ncc(-c4ccc(N5CC6CN(CCc7ccc(C8CCC(=O)NC8=O)c(C)n7)CC6C5)cn4)cc23)ccc1[C@@H](C)NC(=O)c1noc(C(C)(C)C)n1` (stereo partly drawn) [Example 189, 5-(tert-butyl)-N-((1R)-1-(4-(5-(5-(5-(2-(5-(2,6-dioxopiperidin-3-yl)-6-methylpyridin-2-yl)ethyl)hexahydropyrrolo[3,4-c]pyrrol-2(1H)-yl)pyridin-2-yl)-1H-pyrazolo[3,4-b]pyridin-3-yl)-2-methylphenyl)ethyl)-1,2,4-oxadiazole-3-carboxamide], 23.6 nM. In turn, `Cc1cc(N2CCC(CN3CCN(c4ccc(-c5cnc6[nH]nc(-c7cc(CO)c([C@@H](C)NC(=O)c8nc(C(C)(C)C)no8)cc7F)c6c5)cc4)CC3)CC2)ccc1N1CCC(=O)NC1=O` [Example 190, (R)-3-(tert-butyl)-N-(1-(4-(5-(4-(4-((1-(4-(2,4-dioxotetrahydropyrimidin-1(2H)-yl)-3-methylphenyl)piperidin-4-yl)methyl)piperazin-1-yl)phenyl)-1H-pyrazolo[3,4-b]pyridin-3-yl)-5-fluoro-2-(hydroxymethyl)phenyl)ethyl)-1,2,4-oxadiazole-5-carboxamide] yielded a DC50 of 6.11 nM. This DC50 lies about 3.9-fold lower than the previous one. Same read-out and setting: to `Cc1cc(-c2n[nH]c3ncc(-c4ccc(N5CCN(CC6CCN(c7ccc(C8CCC(=O)NC8=O)cc7)C6)CC5)cc4)cc23)ccc1[C@@H](C)NC(=O)c1noc(C(C)(C)C)n1` (stereo partly drawn) [Example 191, 5-(tert-butyl)-N-((1R)-1-(4-(5-(4-(4-((1-(4-(2,6-dioxopiperidin-3-yl)phenyl)pyrrolidin-3-yl)methyl)piperazin-1-yl)phenyl)-1H-pyrazolo[3,4-b]pyridin-3-yl)-2-methylphenyl)ethyl)-1,2,4-oxadiazole-3-carboxamide] belongs 7.34 nM; to `Cc1cc(-c2n[nH]c3ncc(-c4ccc(N5CCN(CC(F)(F)c6ccc(C7CCC(=O)NC7=O)cn6)CC5)cc4)cc23)ccc1[C@@H](C)NC(=O)c1nc(C(C)(C)C)no1` (stereo partly drawn) [Example 192, 3-(tert-butyl)-N-((1R)-1-(4-(5-(4-(4-(2-(5-(2,6-dioxopiperidin-3-yl)pyridin-2-yl)-2,2-difluoroethyl)piperazin-1-yl)phenyl)-1H-pyrazolo[3,4-b]pyridin-3-yl)-2-methylphenyl)ethyl)-1,2,4-oxadiazole-5-carboxamide], 4.03 nM.

The same test, now with this note: IC50 (DC50) of BTK degradation, formate.
On to `Cc1cc(-c2n[nH]c3ncc(-c4ccc(N5CCN(C6CC(c7ccc(C8CCC(=O)NC8=O)cc7)C6)CC5)cc4)cc23)ccc1[C@@H](C)NC(=O)c1noc(C(C)(C)C)n1` (stereo partly drawn) [Example 176, 5-(tert-butyl)-N-((1R)-1-(4-(5-(4-(4-(3-(4-(2,6-dioxopiperidin-3-yl)phenyl)cyclobutyl)piperazin-1-yl)phenyl)-1H-pyrazolo[3,4-b]pyridin-3-yl)-2-methylphenyl)ethyl)-1,2,4-oxadiazole-3-carboxamide formate], for which the 50% degradation concentration (DC50) turned out to be 1.89 nM.
